Several values for one entry are separate records, joined by “and”; a condition that tells them apart may be missing. Identical values can stand only once. Inconclusive results and toxic doses are left out. No stated cut-off is given here; in the data, active means T/C of 150% or more; inactive means T/C below 125%.
Tested on: L1210 leukemia ip in BDF1 mice, survival T/C
Assay: NCI In Vivo Anticancer Drug Screen. Data for tumor model L1210 Leukemia (intraperitoneal) in B6D2F1 (BDF1) mice
Conditions: endpoint: mean survival time, higher = longer survival
In short: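 Transplantable tumor model; survival measured in treated vs vehicle control mice. Value = treated/control.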

[1] = dose: 100.0 mg/kg/injection, schedule: Q01DX001 (ip), vehicle: saline
[2] = dose: 200.0 mg/kg/injection, schedule: Q01DX001 (ip), vehicle: saline
[3] = dose: 400.0 mg/kg/injection, schedule: Q01DX001 (ip), vehicle: saline
[4] = dose: 100.0 mg/kg/injection, schedule: Q01DX009 (ip), vehicle: saline with Tween-80
[5] = dose: 200.0 mg/kg/injection, schedule: Q01DX009 (ip), vehicle: saline with Tween-80
[6] = dose: 400.0 mg/kg/injection, schedule: Q01DX009 (ip), vehicle: saline with Tween-80
[7] = dose: 100.0 mg/kg/injection, schedule: Q04DX003 (ip), vehicle: saline
[8] = dose: 200.0 mg/kg/injection, schedule: Q04DX003 (ip), vehicle: saline
[9] = dose: 400.0 mg/kg/injection, schedule: Q04DX003 (ip), vehicle: saline
[10] = dose: 100.0 mg/kg/injection, schedule: Q01DX009 (ip), vehicle: Klucel (hydroxypropylcellulose) (HPC)
[11] = dose: 100.0 mg/kg/injection, schedule: Q04DX003 (ip), vehicle: Klucel (hydroxypropylcellulose) (HPC)
[12] = dose: 200.0 mg/kg/injection, schedule: Q01DX009 (ip), vehicle: Klucel (hydroxypropylcellulose) (HPC)
[13] = dose: 200.0 mg/kg/injection, schedule: Q04DX003 (ip), vehicle: Klucel (hydroxypropylcellulose) (HPC)
[14] = dose: 400.0 mg/kg/injection, schedule: Q01DX009 (ip), vehicle: Klucel (hydroxypropylcellulose) (HPC)
[15] = dose: 400.0 mg/kg/injection, schedule: Q04DX003 (ip), vehicle: Klucel (hydroxypropylcellulose) (HPC)
[16] = dose: 100.0 mg/kg/injection, schedule: Q04DX002 (ip), vehicle: saline with Tween-80
[17] = dose: 50.0 mg/kg/injection, schedule: Q04DX003 (ip), vehicle: Klucel (hydroxypropylcellulose) (HPC)
[18] = dose: 100.0 mg/kg/injection, schedule: Q04DX003 (ip), vehicle: saline with Tween-80
[19] = dose: 200.0 mg/kg/injection, schedule: Q04DX003 (ip), vehicle: saline with Tween-80
[20] = dose: 400.0 mg/kg/injection, schedule: Q04DX003 (ip), vehicle: saline with Tween-80

Measured: T/C

COc1nc2c(=O)[nH]cnc2n1C1OC(CO)C(O)C1O (stereo unspecified)
inactive: [1] 96 % of control | [2] 100 % of control | [3] 97 % of control

c1ccc2cc3nc4cc5ccccc5cc4nc3cc2c1
inactive: dose: 100.0 mg/kg/injection, schedule: Q01DX001 (ip), vehicle: acetone 95 % of control | [4] 93 % of control | dose: 200.0 mg/kg/injection, schedule: Q01DX001 (ip), vehicle: acetone 95 % of control | [5] 103 % of control | dose: 400.0 mg/kg/injection, schedule: Q01DX001 (ip), vehicle: acetone 92 % of control | [6] 87 % of control

c1ccc(Sc2ncnc3nc[nH]c23)nc1
inactive: dose: 267.0 mg/kg/injection, schedule: Q01DX001 (ip), vehicle: saline with Tween-80 110 % of control

c1ccc2[nH]c(-c3cscn3)nc2c1
inactive: dose: 75.0 mg/kg/injection, schedule: Q04DX003 (ip), vehicle: saline 103 % of control | dose: 150.0 mg/kg/injection, schedule: Q04DX003 (ip), vehicle: saline 103 % of control | dose: 300.0 mg/kg/injection, schedule: Q04DX003 (ip), vehicle: saline 106 % of control

Nn1cn[nH]c1=S
inactive: [7] 98 % of control | [8] 103 % of control | [9] 98 % of control

CCCCN=C(NCCCC)OCCCC
inactive: dose: 11.1 mg/kg/injection, schedule: Q01DX Z (ip), vehicle: saline 104 % of control | dose: 16.6 mg/kg/injection, schedule: Q01DX Z (ip), vehicle: saline 100 % of control

COC(=O)C(NC(=O)CCl)C(=O)OC
inactive: dose: 100.0 mg/kg/injection, schedule: Q04DX003 (ip), vehicle: other 96 % of control | dose: 200.0 mg/kg/injection, schedule: Q04DX003 (ip), vehicle: other 93 % of control | dose: 400.0 mg/kg/injection, schedule: Q04DX003 (ip), vehicle: other 94 % of control

COc1cccc(N=C(N)N=C(N)N)c1
inactive: dose: 75.0 mg/kg/injection, schedule: Q01DX001 (ip), vehicle: saline 101 % of control | dose: 150.0 mg/kg/injection, schedule: Q01DX001 (ip), vehicle: saline 101 % of control | dose: 300.0 mg/kg/injection, schedule: Q01DX001 (ip), vehicle: saline 107 % of control

Cc1ccc(C)c(NC(=O)NC(C)(C)C)c1
inactive: dose: 100.0 mg/kg/injection, schedule: Q04DX002 (ip), vehicle: Klucel (hydroxypropylcellulose) (HPC) 105 % of control | dose: 200.0 mg/kg/injection, schedule: Q04DX002 (ip), vehicle: Klucel (hydroxypropylcellulose) (HPC) 102 % of control | dose: 400.0 mg/kg/injection, schedule: Q04DX002 (ip), vehicle: Klucel (hydroxypropylcellulose) (HPC) 117 % of control

CC(O)c1ccc(Cl)c(Cl)c1 (stereo unspecified)
inactive: [10] 91 % of control | [11] 98 % of control | [12] 90 % of control | [13] 109 % of control | [14] 101 % of control | [15] 104 % of control

CCCCCCCCCCCCBr
inactive: [16] 102 % of control | dose: 200.0 mg/kg/injection, schedule: Q04DX002 (ip), vehicle: saline with Tween-80 97 % of control | dose: 400.0 mg/kg/injection, schedule: Q04DX002 (ip), vehicle: saline with Tween-80 102 % of control

CCOP(=O)(OCC)SC=C(Cl)Cl
inactive: dose: 25.0 mg/kg/injection, schedule: Q04DX002 (ip), vehicle: saline with Tween-80 94 % of control | dose: 50.0 mg/kg/injection, schedule: Q04DX002 (ip), vehicle: saline with Tween-80 91 % of control | [16] 94 % of control and 95 % of control

CC(=O)Nc1c(Cl)cc2c(c1Cl)Cc1cc(C#N)ccc1-2
inactive: dose: 100.0 mg/kg/injection, schedule: Q01DX001 (ip), vehicle: carboxymethylcellulose (CMC) 102 % of control | dose: 200.0 mg/kg/injection, schedule: Q01DX001 (ip), vehicle: carboxymethylcellulose (CMC) 102 % of control | dose: 400.0 mg/kg/injection, schedule: Q01DX001 (ip), vehicle: carboxymethylcellulose (CMC) 98 % of control

Cc1ccc(/C=N/NC(=O)c2ccc(N=NN(C)C)cc2)cc1
inactive: [17] 95 % of control | [11] 99 % of control | [13] 100 % of control

CN(C)c1ccc(/C=C2\CCC/C(=C\c3ccc(N(C)C)cc3)C2=O)cc1
inactive: [11] 96 % of control | [13] 96 % of control | [15] 92 % of control

Nc1ncc(CCCOc2ccccc2)c(=O)[nH]1
inactive: [18] 96 % of control | [19] 98 % of control | [20] 93 % of control

Cc1c2c(n(C)c1C(=O)N1CCOCC1)CCCC2=O
inactive: dose: 100.0 mg/kg/injection, schedule: Q04DX003 (ip), vehicle: carboxymethylcellulose (CMC) 101 % of control | dose: 200.0 mg/kg/injection, schedule: Q04DX003 (ip), vehicle: carboxymethylcellulose (CMC) 98 % of control | dose: 400.0 mg/kg/injection, schedule: Q04DX003 (ip), vehicle: carboxymethylcellulose (CMC) 98 % of control

COc1ccc(Nc2cc(=O)[nH]c(N)n2)cc1
inactive: dose: 100.0 mg/kg/injection, schedule: Q01DX Z (ip), vehicle: methylcellulose (MC) 112 % of control | dose: 200.0 mg/kg/injection, schedule: Q01DX Z (ip), vehicle: methylcellulose (MC) 108 % of control

Cc1ccc(N=Cc2ccccc2)cc1
inactive: [10] 104 % of control | [11] 95 % of control | [12] 107 % of control | [13] 101 % of control | [14] 104 % of control | [15] 101 % of control

C=C[Si](C)(OCC)OCC
inactive: [1] 93 % of control | [2] 90 % of control | [3] 101 % of control

COC(C#N)C(=N)CC#N (stereo unspecified)
inactive: dose: 9.5 mg/kg/injection, schedule: Q01DX001 (ip), vehicle: saline 107 % of control | dose: 19.0 mg/kg/injection, schedule: Q01DX001 (ip), vehicle: saline 101 % of control

CC1C(=O)OC2CC[N+]3(C)CC=C(COC(=O)C(C)(O)C1(C)O)C23 (stereo unspecified)
inactive: dose: 50.0 mg/kg/injection, schedule: Q01DX009 (ip), vehicle: saline 92 % of control | dose: 100.0 mg/kg/injection, schedule: Q01DX009 (ip), vehicle: saline 100 % of control | dose: 200.0 mg/kg/injection, schedule: Q01DX009 (ip), vehicle: saline 92 % of control

O=C(CCl)NC1=C(N2CC2)C(=O)c2ccccc2C1=O
inactive: [17] 93 % of control | [11] 91 % of control

COc1ccc(C2=C(C)CC3c4cc(OC)c(OC)cc4CCN3C2)cc1OC (stereo unspecified)
inactive: dose: 52.0 mg/kg/injection, schedule: Q01DX001 (ip), vehicle: carboxymethylcellulose (CMC) 101 % of control | dose: 78.0 mg/kg/injection, schedule: Q01DX001 (ip), vehicle: carboxymethylcellulose (CMC) 104 % of control | dose: 177.0 mg/kg/injection, schedule: Q01DX001 (ip), vehicle: carboxymethylcellulose (CMC) 118 % of control

CC(=O)Nc1cccc(N=Cc2ccc(N(CCOS(C)(=O)=O)CCOS(C)(=O)=O)cc2C)c1
inactive: dose: 8.0 mg/kg/injection, schedule: Q01DX009 (ip), vehicle: saline with Tween-80 120 % of control

CN(C(=O)Nc1ccccc1F)C1CCCCC1
inactive: dose: 50.0 mg/kg/injection, schedule: Q01DX009 (ip), vehicle: Klucel (hydroxypropylcellulose) (HPC) 101 % of control | [10] 90 % of control | [12] 96 % of control

O=C(/C=N/O)Nc1cc(Cl)ccc1Cl
inactive: [4] 91 % of control | [18] 97 % of control | [5] 87 % of control | [19] 93 % of control | [6] 88 % of control | [20] 108 % of control

NC(=O)C[n+]1cccc(C(N)=O)c1
inactive: [7] 97 % of control | [8] 101 % of control | [9] 101 % of control

COc1ccc(C2c3cc(OC)c(OC)c(S(N)(=O)=O)c3CC3C(=O)OCC32)cc1OC (stereo unspecified)
inactive: [1] 98 % of control | [2] 96 % of control | [3] 98 % of control

Source: PubChem BioAssay AID248 (DTP/NCI, 2004)
